From PMC5570892, “Indole-based perenosins as highly potent HCl transporters and potential anti-cancer agents” (Scientific Reports, 2017)
“And” between values parts separate entries of the source, which are not always exact repeats. Equal values may be shown once. “Also recorded” adds a separate entry of the source.

Assay: Cl^−/NO3^− antiport assay by chloride ISE
Assay type: biochemical
Conditions: for chloride efflux at pH 4.5: citrate buffer, within 5 minutes; for chloride transport at pH 6.5: phosphate buffer, compared to pH 7.2; for chloride transport at pH 7.2 (Hill analysis feasibility): Cl^−/NO3^− ISE assay, dose response; for EC50 Cl^−/NO3^− at pH 7.2 (by ISE): EC50 at 270 s, carrier:lipid molar percent, POPC vesicles
Protocol: The chloride transport properties of the new perenosins 2–8 were compared to 1d using the chloride/nitrate exchange assay monitored by a chloride ion selective electrode (ISE). Typically, unilamellar vesicles were prepared from POPC, containing an intravesicular NaCl solution (489 mM with 5 mM phosphate buffer at pH 7.2) suspended in a NaNO3 solution (489 mM with 5 mM phosphate buffer at pH 7.2). All perenosins were added as a DMSO solution and the rate of chloride efflux was monitored by the chloride ISE. At the end of the experiment (300 s), detergent was added to lyse the vesicles and obtain the 100% chloride efflux reading. Dose response studies of 1d and 2–8 were performed to allow Hill analysis, giving the EC50 values and Hill coefficients as shown in Table 2.
The external pH of cancer cells (pH 6.7[53]) is slightly acidic compared to healthy cells (pH 7.2–7.5[54]). […] To investigate the effect of pH on the chloride transport capabilities unilamellar vesicles were loaded with NaCl (489 mM) and suspended in NaNO3 (489 mM), and the internal and external solutions were buffered to pH 4.5, 6.5, 7.2 and 10 using various buffers (more detail can be found in the Supplementary Information). Compounds 1d and 2–8 were then tested in a single point screen at 0.1 mol% loading (Fig. 5). At pH 4.5 the perenosins exist predominantly as the active protonated species and so all compounds show moderate to high chloride transport properties, whereas, there is no chloride transport observed at pH 10 (see Supplementary Information for results).
S10. Anion Transport Studies
S10.1. General Procedure for the ISE Assay
Unilamellar vesicles were prepared using previously reported literature procedures7-9. A lipid film of POPC (1-palmitoyl-2-oleoyl-sn-glycero-3-phosphocholine) or POPC:cholesterol (7:3 molar ratio) was prepared from a chloroform solution under reduced pressure and then dried under vacuum for 4 or more hours. The lipid film was rehydrated by vortexing with an internal solution of buffered metal chloride salt (usually 489 mM MCl). The lipid suspension was then subjected to 9 freeze-thaw cycles and left to rest at room temperature for 30 minutes. After this, the suspension was extruded 25 times through a 200 nm polycarbonate membrane resulting in unilamellar vesicles of a mean diameter of 200 nm. The large unilamellar vesicles were dialysed in the corresponding external solution for a minimum of 2 hours to remove any unencapsulated metal salts. The lipid solution obtained after dialysis was diluted to a standard volume (usually 10 mL) with the external buffered solution to obtain a lipid stock of known concentration.
Internal and external solutions vary for each experiment and are detailed for each. Experiments conducted at different pHs required different buffers (citrate buffer for pH 4.5; phosphate buffer for pH 6.5 and pH 7.2; and ethanolamine buffer for pH 10) however, a constant buffer concentration (5 mM) and total ionic strength (500 mM) was maintained.
The lipid stock was diluted with the external buffer solution to a standard volume (5 mL), to afford a solution with a lipid concentration of 1 mM. The compounds were added as a DMSO solution (10 μL) at the start of the experiment and the resulting chloride efflux was monitored using a chloride selective electrode over 5 minutes. After this time, detergent (50 μL of Triton X-100 (11 w%) in H2O:DMSO (7:1 v/v)) was added to lyse the vesicles and after 7 minutes a final chloride efflux reading was taken. This value represented 100 % chloride efflux and was used to calibrate the other […]
Compared to pH 7.2, at pH 6.5 compounds 1d and 2-6 show increased transport ability with 2, 4 and 5 showing very similar, high transport capabilities and 1d, 3 and 6 not transporting to as great an […]
S10.3. Cl-/NO3- ISE Assay - Hill Analysis
The Cl-/NO3- exchange assay was performed as described above testing the compounds at varying […]
carrier concentration (mol%, with respect to lipid). The data points were then fitted to the Hill […]

Row | SMILES | chloride efflux at pH 4.5 (0.1 mol% loading) | chloride transport at pH 6.5 (0.1 mol% loading) | chloride transport at pH 7.2 (Hill analysis feasibility) | EC50 Cl^−/NO3^− at pH 7.2 (by ISE) | maximum chloride efflux (after 300 s, loading of 10 mol%, pH 7.2) [%] | chloride efflux in POPC vesicles at pH 7.2 (0.1 mol% loading) [%]
1 | CCCCCc1cc(/N=C/c2[nH]c3ccccc3c2C)c2[nH]ccc2c1 [Perenosin 7] | inactive | inactive | too weak to perform Hill analysis; also recorded: weak transport activity |  |  | 
2 | CCCCCc1cc2cc(C)cc(/N=C/c3[nH]c(C)c(CCCCC)c3C)c2[nH]1 [Perenosin 6] |  |  |  | 0.0852 mol% |  | 
3 | CCCCCc1c(C)[nH]c(/C=N/c2cc(C)cc3cc[nH]c23)c1C [Perenosin 5] |  | high |  | 0.0227 mol% |  | 
4 | CCCCCc1cc2cc(C(F)(F)F)cc(/N=C/c3[nH]c(C)cc3C)c2[nH]1 [Perenosin 3] |  |  | too weak to perform Hill analysis |  | 35 | 
5 | CCCCCc1cc2cc(C)cc(/N=C/c3[nH]c(C)cc3C)c2[nH]1 [Perenosin 2] |  | high |  | 0.0043 mol% |  | 100
6 | CCCCCc1cc(/N=C/c2[nH]c(C)cc2C)c2[nH]ccc2c1 [Perenosin 1d] |  |  |  | 0.122 mol% and 0.1220 mol% |  | 
7 | CCCCCc1cc2cc(C)cc(/N=C/c3[nH]c4ccccc4c3C)c2[nH]1 [Perenosin 8] | 35% | inactive | too weak to perform Hill analysis; also recorded: weak transport activity |  |  | 
8 | CCCc1cc2cc(C)cc(/N=C/c3[nH]c(C)cc3C)c2[nH]1 [Perenosin 4] |  | high |  | 0.0111 mol% |  | 
